According to article PMC7473772 (eLife, 2020):
Values joined by “and” are separate entries in the source; they are usually repeats but may differ in a detail not shown here. Equal entries are not always repeated. Structures can show the parent of a compound that is named as a salt. Where two headings read alike, the source gives them in different places. Marks after values point to notes of the source that are not given here.

Tests used:
TbAQP2/HAPT1 = TbAQP2/HAPT1 (Trypanosoma brucei brucei, UniProt Q6ZXT3); assay: cell-based; type: cell-based
Chain of TbAQP2/HAPT1 (Q6ZXT3 whole entry): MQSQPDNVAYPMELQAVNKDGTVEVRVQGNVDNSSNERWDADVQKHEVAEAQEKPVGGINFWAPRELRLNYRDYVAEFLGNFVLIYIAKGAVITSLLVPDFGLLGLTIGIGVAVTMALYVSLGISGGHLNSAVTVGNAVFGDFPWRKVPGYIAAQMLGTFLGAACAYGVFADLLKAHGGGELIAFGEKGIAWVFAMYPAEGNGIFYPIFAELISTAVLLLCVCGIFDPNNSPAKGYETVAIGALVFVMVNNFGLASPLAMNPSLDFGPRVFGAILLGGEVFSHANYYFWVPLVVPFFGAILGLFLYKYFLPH

tbaqp2 null (AQP2-KO) = assay: Drug sensitivity assay (resazurin); type: cell-based; settings: Trypanosoma brucei, read-out: EC50 AQP2-KO AVG, AQP2-KO / tbaqp2 null; 48 h drug + 24 h resazurin
T. b. brucei 2T1 = assay: Drug sensitivity assay (resazurin); type: cell-based; settings: Trypanosoma brucei, 48 h drug + 24 h resazurin, read-out: EC50 control 2T1 AVG
Description: The tbaqp2/tbaqp3 null cells ([Baker et al., 2012]) and tbaqp1-2-3 null cells ([Jeacock et al., 2017]) (both obtained from David Horn, University of Dundee, UK) are derived from the 2T1 strain of T. b. brucei ([Alsford and Horn, 2008]). The CRK12 RNAi cell line^28 was obtained from Dr Tansy Hammarton (University of Glasgow, UK) and is also based on the 2T1 cell line; RNAi expression was induced with 1 µg/ml tetracycline in the medium. All experiments were performed with bloodstream form trypanosomes grown in vitro in HMI-11 medium as described ([Wallace et al., 2002]) at 37°C in a 5% CO2 atmosphere. Cultures were routinely maintained in 10 ml of this medium, being seeded at 5 × 10^4 cells/ml and passed to fresh medium at reaching approximately 3 × 10^6 cells/ml after 48 hr. For transport experiments 150 or 200 ml of culture was seeded at the same density in large flasks and incubated until the culture reached late-log phase.
Drug sensitivity assays for T. b. brucei bloodstream forms used the cell viability dye resazurin (Sigma) and were performed exactly as described ([Wallace et al., 2002]; [Bridges et al., 2007]) in 96-well plates with doubling dilutions of test compound, starting at 100 µM, over 2 rows of the plate (23 dilutions plus no-drug control). Incubation time with test compound was 48 hr (37°C/5% CO2), followed by an additional 24 hr in the presence of the dye.

s427WT bloodstream forms = type: cell-based, Trypanosoma brucei brucei; settings: for 3H-penta: CCCP 20, gramicidin 10, Nigericin 20, NEM 1000; for Inhibition of pentamidine transport: after preincubation
[1] = tested on: T. b. brucei s427 WT (bloodstream forms); type: cell-based, Trypanosoma brucei brucei
[2] = tested on: T. b. brucei s427WT cells; type: cell-based, Trypanosoma brucei brucei
CRK12 RNAi cells = assay: [3H]-suramin uptake after CRK12 RNAi induction (endocytosis defect); type: cell-based, Trypanosoma brucei
[3] = 25 nM [3H]-pentamidine, 1 mM adenosine, 3 min pre-incubation
[4] = CCCP 20, gramicidin 10, Nigericin 20, NEM 1000, Control -95.4

Compound: N=C(N)c1ccc(OCCCCCOc2ccc(C(=N)N)cn2)nc1 [RT-52]
- ΔG0 (TbAQP2/HAPT1): -6.88 kcal/mol
- δ(ΔG^0) PMD (TbAQP2/HAPT1): 3.27 kcal/mol
- Ki (TbAQP2/HAPT1; Ki): 8840 ± 880 nM
- EC50 (tbaqp2 null (AQP2-KO)): 51 nM
- EC50 (T. b. brucei 2T1): 8.8 nM

Compound: N=C(N)c1ccc(SCCCCCSc2ccc(C(=N)N)cc2)cc1 [RT-48]
- ΔG0 (TbAQP2/HAPT1): -7.77 kcal/mol
- δ(ΔG^0) PMD (TbAQP2/HAPT1): 2.39 kcal/mol
- Ki (TbAQP2/HAPT1; Ki): 2010 ± 860 nM
- EC50 (tbaqp2 null (AQP2-KO)): 165 nM
- EC50 (T. b. brucei 2T1): 24 nM

Compound: c1cc(C2=NCCN2)ccc1OCCCCCOc1ccc(C2=NCCN2)cc1 [RT-32]
- ΔG0 (TbAQP2/HAPT1): -8.72 kcal/mol
- δ(ΔG^0) PMD (TbAQP2/HAPT1): 1.43 kcal/mol
- Ki (TbAQP2/HAPT1; Ki): 400 ± 80 nM
- EC50 (tbaqp2 null (AQP2-KO)): 500 nM
- EC50 (T. b. brucei 2T1): 400 nM

Compound: N=C(N)c1ccc(OCCCCCOc2ccc(N)cc2)cc1 [RT-36]
- ΔG0 (TbAQP2/HAPT1): -8.68 kcal/mol
- δ(ΔG^0) PMD (TbAQP2/HAPT1): 1.48 kcal/mol
- Ki (TbAQP2/HAPT1; Ki): 430 ± 70 nM
- EC50 (tbaqp2 null (AQP2-KO)): 23000 nM
- EC50 (T. b. brucei 2T1): 25700 nM

Compound: Cl.Cl.c1cc(-c2ccc(-c3ccc(CCC4=NCCN4)cc3)s2)ccc1CCC1=NCCN1 [DB1064, 2,5-bis(4-(2-(4,5-dihydro-1H-imidazol-2-yl)ethyl)phenyl) thiophene dihydrochloride]
- ΔG0 (TbAQP2/HAPT1): -7.53 kcal/mol
- δ(ΔG^0) PMD (TbAQP2/HAPT1): 2.63 kcal/mol
- Ki (TbAQP2/HAPT1; Ki): 3000 ± 820 nM
- melting point: > 225 °C (dec.)

Compound: CO[C@@H]1C[C@@H](C[C@H]2CC[C@H](C)[C@H]([C@@H](C)C(=O)O)O2)O[C@]2(O[C@](C)([C@H]3CC[C@@](C)([C@@H]4O[C@@H]([C@H]5O[C@@](O)(CO)[C@H](C)C[C@@H]5C)C[C@@H]4C)O3)C[C@H]2C)[C@@H]1C [nigericin]
- Effect of ionophore on pentamidine uptake (s427WT bloodstream forms): strongly inhibited
- 3H-penta (s427WT bloodstream forms; Control = 100): 44.45
- pentamidine uptake (s427WT bloodstream forms; Nigericin 1, AVG): 109.4 percentage of the uninhibited control
- pentamidine uptake (s427WT bloodstream forms; Nigericin 1, single repeats): 108 percentage of the uninhibited control and 110.7 percentage of the uninhibited control
- pentamidine uptake (s427WT bloodstream forms; Nigericin 5, AVG): 76.8 percentage of the uninhibited control
- pentamidine uptake (s427WT bloodstream forms; Nigericin 10, AVG): 61.2 percentage of the uninhibited control
- pentamidine uptake (s427WT bloodstream forms; Nigericin 10, single repeats): 63.9 percentage of the uninhibited control and 61 percentage of the uninhibited control and 53.2 percentage of the uninhibited control and 66.7 percentage of the uninhibited control
- pentamidine uptake (s427WT bloodstream forms; Nigericin 20, AVG): 44.5 percentage of the uninhibited control
- pentamidine uptake (s427WT bloodstream forms; Nigericin 20, single repeats): 41.7 percentage of the uninhibited control and 44.5 percentage of the uninhibited control and 42.9 percentage of the uninhibited control and 48.7 percentage of the uninhibited control
- PMF [1]: -46.9

Compound: CNC(=N)c1ccc(OCCCCCOc2ccc(C(=N)NC)cc2)cc1 [RT-30]
- ΔG0 (TbAQP2/HAPT1): -8.89 kcal/mol
- δ(ΔG^0) PMD (TbAQP2/HAPT1): 1.27 kcal/mol
- Ki (TbAQP2/HAPT1; Ki): 300 ± 70 nM
- EC50 (tbaqp2 null (AQP2-KO)): 800 nM
- EC50 (T. b. brucei 2T1): 590 nM

Compound: N=C(N)c1ccc(OCCCCCOc2ccc(C(=N)N)cc2Cl)c(Cl)c1 [RT-43]
- ΔG0 (TbAQP2/HAPT1): -8.58 kcal/mol
- δ(ΔG0) (TbAQP2/HAPT1): 1.59 kcal/mol
- δ(ΔG^0) PMD (TbAQP2/HAPT1): 1.58 kcal/mol
- Ki (TbAQP2/HAPT1; Ki): 510 ± 150 nM
- EC50 (tbaqp2 null (AQP2-KO)): 235 nM
- EC50 (T. b. brucei 2T1): 180 nM

Compound: Cc1ccc(OCCCCCOc2ccc(C(=N)N)cc2)cc1 [CHI/1/72/1, 4-(5-(p-tolyloxy)pentyyloxy)benzimidamide hydrochloride hydrate]
- ΔG0 (TbAQP2/HAPT1): -7.62 kcal/mol
- δ(ΔG^0) PMD (TbAQP2/HAPT1): 2.56 kcal/mol
- Ki (TbAQP2/HAPT1; HAPT Ki AVG): 2600 nM
- Ki (TbAQP2/HAPT1; HAPT Ki, AVG): 2620 nM
- EC50 (tbaqp2 null (AQP2-KO)): 2640 nM
- EC50 (T. b. brucei 2T1): 3230 nM

Compound: Cn1c(-c2ccc(-c3ccc(C(=N)N)cc3)o2)nc2ccccc21 (as salt: hydrochloride) [DB960, 4-(5-(1-methyl-1H-benzo[d]imidazol-2-yl)furan-2-yl) benzimidamide dihydrochloride]
- melting point: > 290 °C (dec.)

Compound: N=C(N)c1ccc(-c2ccc(-c3ccc(C(=N)N)cc3)o2)cc1 [DB75]
- ΔG0 (TbAQP2/HAPT1): -6.02 kcal/mol
- δ(ΔG^0) PMD (TbAQP2/HAPT1): 4.13 kcal/mol
- Ki (TbAQP2/HAPT1; HAPT Ki AVG): 38300 nM
- Ki (TbAQP2/HAPT1; Ki): 38200 ± 10200 nM
- EC50 (tbaqp2 null (AQP2-KO)): 20 nM
- EC50 (T. b. brucei 2T1): 50 nM

Compound: Cl.N=C(N)c1ccc(OCCCCOc2ccccc2)cc1.O (hydrate or solvate) [CHI/1/69/1, 4-(4-Phenoxybutoxy)benzimidamide hydrochloride hydrate]
- melting point: 134 to 135 °C

Compound: carbonyl cyanide m-chlorophenyl hydrazone [CCCP]
- Effect of ionophore on pentamidine uptake (s427WT bloodstream forms; [3]): strongly inhibited
- Inhibition of pentamidine transport (s427WT bloodstream forms; 1 µM): ~ 63%
- Inhibition of pentamidine transport (s427WT bloodstream forms; 5 µM): ~ 90%
- pentamidine uptake (s427WT bloodstream forms; CCCP 0.25, AVG): 106.6 percentage of the uninhibited control
- pentamidine uptake (s427WT bloodstream forms; CCCP 0.25, single repeats): 101 percentage of the uninhibited control and 112.1 percentage of the uninhibited control
- pentamidine uptake (s427WT bloodstream forms; CCCP 1, AVG): 36.9 percentage of the uninhibited control
- pentamidine uptake (s427WT bloodstream forms; CCCP 1, single repeats): 34.6 percentage of the uninhibited control and 39.1 percentage of the uninhibited control
- pentamidine uptake (s427WT bloodstream forms; CCCP 5, AVG): 10.3 percentage of the uninhibited control
- pentamidine uptake (s427WT bloodstream forms; CCCP 10, AVG): 4.3 percentage of the uninhibited control
- 3H-penta (s427WT bloodstream forms; Control = 100): 4.97*
- pentamidine uptake (s427WT bloodstream forms; CCCP 20, AVG): 5.0 percentage of the uninhibited control
- 3H-penta, outlier (s427WT bloodstream forms; CCCP 20, repeated in the column outlier, Control = 100): 4.97
- PMF [1, 4]: -45.6
- Inhibition of [3H]-suramin uptake (endocytosis) ([2]; 20 µM CCCP, pre-incubation 3 min, suramin accumulation over 10 min): 32.6%
- suramin accumulated, % of no CCCP control ([2]; +CCCP, 10 minutes): 67.3935 % of no CCCP control
- pmol suramin accumulated in 10 minutes (Average) ([2]; +CCCP, Average of experiments): 0.5894 pmol
- pmol suramin accumulated in 10 minutes (AVG pmol) ([2]; +CCCP, single experiments): 0.4589 pmol and 0.5929 pmol and 0.7163 pmol

Compound: COc1ccc(-c2ccc(-c3ccc(C(=N)N)cc3)o2)cc1 (as salt: hydrochloride) [DB607, 4-(5-(4-methoxyphenyl)furan-2-yl) benzimidamide hydrochloride]
- melting point: 250 to 252 °C (dec.)

Compound: Cl.Cl.N=C(N)c1ccc(OCCOc2ccc(C(=N)N)cc2)cc1.O.O (hydrate or solvate) [Ethamidine, 4,4'-(ethane-1,2-diylbis(oxy))dibenzimidamide dihydrochloride dihydrate]
- melting point: 333 °C

Compound: gramicidin
- Effect of ionophore on pentamidine uptake (s427WT bloodstream forms; [3]): strongly inhibited
- 3H-penta (s427WT bloodstream forms; Control = 100): 5.87
- pentamidine uptake (s427WT bloodstream forms; Gramicidin 1, AVG): 23.3 percentage of the uninhibited control
- pentamidine uptake (s427WT bloodstream forms; Gramicidin 5, AVG): 3.7 percentage of the uninhibited control
- pentamidine uptake (s427WT bloodstream forms; Gramicidin 10, AVG): 5.9 percentage of the uninhibited control
- PMF [1, 4]: -13.1

Compound: Cc1ccc(C(=O)Nc2ccc(S(=O)(=O)O)c3cc(S(=O)(=O)O)cc(S(=O)(=O)O)c23)cc1NC(=O)c1cccc(NC(=O)Nc2cccc(C(=O)Nc3cc(C(=O)Nc4ccc(S(=O)(=O)O)c5cc(S(=O)(=O)O)cc(S(=O)(=O)O)c45)ccc3C)c2)c1 [Suramin]
- suramin uptake rate, CRK+tet (CRK12 RNAi cells; AVERAGE of the experiments): 0.000346 pmol/1E7 cells/s-1
- suramin uptake rate, CRK+tet (CRK12 RNAi cells; single experiments): 0.0003125 pmol/1E7 cells/s-1 and 0.0002775 pmol/1E7 cells/s-1 and 0.0003952 pmol/1E7 cells/s-1 and 0.0004343 pmol/1E7 cells/s-1
- suramin uptake rate, CRK-tet (CRK12 RNAi cells; AVERAGE of the experiments): 0.000523 pmol/1E7 cells/s-1
- suramin uptake rate, CRK-tet (CRK12 RNAi cells; single experiments): 0.0004923 pmol/1E7 cells/s-1 and 0.0003572 pmol/1E7 cells/s-1 and 0.000635 pmol/1E7 cells/s-1 and 0.0006387 pmol/1E7 cells/s-1
- Reduction of [3H]-suramin uptake (CRK12 RNAi cells; twelve hours after CRK12 RNAi induction): 33%

Compound: CCN1C(=O)C=CC1=O [NEM, N-ethylmaleimide]
- pentamidine uptake (s427WT bloodstream forms; NEM 1000, AVG): 60.1 percentage of the uninhibited control
- pentamidine uptake (s427WT bloodstream forms; NEM 1000, single repeats): 56.77 percentage of the uninhibited control and 56.26 percentage of the uninhibited control and 67.13 percentage of the uninhibited control
- PMF [1]: -39.3

Compound: N=C(N)c1ccc(-c2ccc(-c3ccc(C(=N)N)cc3)[se]2)cc1 [DB1213]
- ΔG0 (TbAQP2/HAPT1): -8.39 kcal/mol
- δ(ΔG^0) PMD (TbAQP2/HAPT1): 1.79 kcal/mol
- Ki (TbAQP2/HAPT1; Ki): 720 ± 170 nM
- EC50 (tbaqp2 null (AQP2-KO)): 78 nM
- EC50 (T. b. brucei 2T1): 142 nM

Compound: N=C(N)c1ccc(NCCCCCNc2ccc(C(=N)N)cc2)cc1 [RT-50]
- ΔG0 (TbAQP2/HAPT1): -7.1 kcal/mol
- δ(ΔG^0) PMD (TbAQP2/HAPT1): 3.08 kcal/mol
- Ki (TbAQP2/HAPT1; Ki): 6270 ± 1300 nM
- EC50 (tbaqp2 null (AQP2-KO)): 72 nM
- EC50 (T. b. brucei 2T1): 4.1 nM
